# According to PMC4336569 (European journal of medicinal chemistry, 2014):
# Entries after “also recorded” stand apart in the source; their conditions may differ.
# Columns and labels:
# [1] = system: mice; conditions: 3.8 μmol/kg i.v., previous study; cited from earlier work
# [2] = system: CCI-exposed rats; assay: von Frey test; conditions: for Response (ED50) with 95% confidence limits, von Frey: neuropathic pain
# [3] = system: naïve rats; assay: Tail-flick test; conditions: for antinociceptive effect in acute pain: 1 nmol i.t.; for toxic effect: 9.5 nmol i.t.; for toxic effect / Response (ED50) with 95% confidence limits, Tail-flick / effect in tail-flick test: naïve rats; for Response (ED50) with 95% confidence limits, Tail-flick: acute pain; for effect in tail-flick test: i.t., 30 min after administration; for duration of antinociceptive effect: after intrathecal administration, data not shown
# [4] = system: CCI-exposed rats; assay: Cross tolerance with morphine in neuropathic pain model; type: in vivo, rat; conditions: for cross tolerance with morphine: single dose of morphine 3.5 nmol on day 13 after repeated hybrid 1 nmol i.t.
# [5] = system: CCI-exposed rats; assay: Cold plate test; conditions: for Response (ED50) with 95% confidence limits, Cold plate: neuropathic pain
# [6] = system: mice; assay: Tail-flick test
# [7] = molecular target: MOR (Rattus norvegicus, UniProt P33535); assay: Opioid receptor binding assay, [3H]DAMGO displacement; conditions: vs 4 (Gly4 replaced by β-Ala)
# Chain of MOR (Rattus norvegicus, UniProt P33535) (P33535 whole entry): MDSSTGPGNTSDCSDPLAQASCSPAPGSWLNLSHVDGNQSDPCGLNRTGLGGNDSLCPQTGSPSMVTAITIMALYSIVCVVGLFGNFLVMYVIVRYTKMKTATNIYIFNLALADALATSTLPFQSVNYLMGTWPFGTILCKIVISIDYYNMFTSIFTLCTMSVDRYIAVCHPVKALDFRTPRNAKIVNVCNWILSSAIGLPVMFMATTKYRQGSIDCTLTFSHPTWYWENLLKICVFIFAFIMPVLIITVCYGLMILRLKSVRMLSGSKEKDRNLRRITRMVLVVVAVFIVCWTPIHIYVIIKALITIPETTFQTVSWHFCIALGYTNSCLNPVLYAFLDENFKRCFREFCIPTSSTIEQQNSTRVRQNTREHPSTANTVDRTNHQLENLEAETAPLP
# [8] = molecular target: DOR (Rattus norvegicus, UniProt P33533); assay: Opioid receptor binding assay, [3H]DSLET displacement
# Chain of DOR (Rattus norvegicus, UniProt P33533) (P33533 whole entry): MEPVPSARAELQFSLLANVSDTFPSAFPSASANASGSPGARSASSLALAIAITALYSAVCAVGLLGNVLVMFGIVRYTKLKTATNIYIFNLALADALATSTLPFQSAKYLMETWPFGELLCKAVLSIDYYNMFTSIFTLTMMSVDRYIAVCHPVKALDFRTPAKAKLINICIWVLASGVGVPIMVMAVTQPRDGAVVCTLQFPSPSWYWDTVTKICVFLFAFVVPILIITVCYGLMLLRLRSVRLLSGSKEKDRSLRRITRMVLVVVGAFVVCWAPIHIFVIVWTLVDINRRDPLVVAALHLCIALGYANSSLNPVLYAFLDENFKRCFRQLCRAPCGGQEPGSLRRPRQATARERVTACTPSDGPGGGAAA
# [9] = molecular target: T1, hNK1R (Homo sapiens, UniProt P25103); assay: hNK1/CHO cell membrane radioligand binding assay
# T1 sequence (P25103 whole entry): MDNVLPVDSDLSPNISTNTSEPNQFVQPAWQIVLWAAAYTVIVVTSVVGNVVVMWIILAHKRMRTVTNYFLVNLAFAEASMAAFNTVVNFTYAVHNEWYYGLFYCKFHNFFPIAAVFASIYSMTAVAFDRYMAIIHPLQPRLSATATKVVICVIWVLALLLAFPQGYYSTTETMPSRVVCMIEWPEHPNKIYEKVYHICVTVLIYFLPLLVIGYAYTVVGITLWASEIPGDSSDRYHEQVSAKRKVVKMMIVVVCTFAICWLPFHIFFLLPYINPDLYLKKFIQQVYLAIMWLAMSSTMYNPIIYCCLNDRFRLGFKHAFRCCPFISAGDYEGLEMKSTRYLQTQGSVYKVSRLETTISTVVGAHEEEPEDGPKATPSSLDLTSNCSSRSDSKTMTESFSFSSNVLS
# [10] = molecular target: T1, hNK1R; assay: Functional NK1R assay; type: cell-based; conditions: compared to lead compound 4
# [11] = system: CCI-exposed rats; assay: Tolerance development in neuropathic pain model; type: in vivo, rat; conditions: von Frey and cold plate, repeated i.t. 1 nmol
# [12] = system: MOR; assay: Functional GPI; type: biochemical, guinea pig
# [13] = molecular target: DOR (Mus musculus, UniProt P32300); assay: Functional mouse vas deferens; type: biochemical; conditions: from 22 to 33, MVD assay
# Chain of DOR (Mus musculus, UniProt P32300) (P32300 whole entry): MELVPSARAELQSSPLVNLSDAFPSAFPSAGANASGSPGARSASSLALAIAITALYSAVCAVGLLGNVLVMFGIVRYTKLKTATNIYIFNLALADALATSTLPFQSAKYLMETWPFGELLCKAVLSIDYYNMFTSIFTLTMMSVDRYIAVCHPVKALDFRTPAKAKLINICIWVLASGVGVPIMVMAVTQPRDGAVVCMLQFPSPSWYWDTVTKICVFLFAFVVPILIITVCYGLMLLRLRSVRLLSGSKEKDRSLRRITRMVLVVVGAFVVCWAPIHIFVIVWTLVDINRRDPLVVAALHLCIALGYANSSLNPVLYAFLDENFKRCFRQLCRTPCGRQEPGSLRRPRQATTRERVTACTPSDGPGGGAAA
smiles,measurement,setting,value
"Cc1cc(O)cc(C)c1C[C@H](N)C(=O)N[C@H](CCCNC(=N)N)C(=O)N[C@H]1Cc2ccccc2CN(CC(=O)N(C)Cc2cc(C(F)(F)F)cc(C(F)(F)F)c2)C1=O [Compound 4, H-Dmt-D-Arg-Aba-Gly-NMe-3’,5’-(CF3)2-Bn]",antinociceptive potency relative to i.p. administered morphine,[1],3.7 times
same,toxic effect,"[2]; 1 nmol i.t., CCI rats",not observed
same,"attenuation of allodynia, von Frey","[2]; 1 nmol i.t., day 7 after CCI",60 % MPE
same,toxic effect,"[2]; highest investigated dose 9.5 nmol i.t., CCI rats, not shown",toxic effect
same,"Response (ED50) with 95% confidence limits, von Frey",[2]; day 7 after CCI,1.05 (0.65 - 1.69) nmol i.t.
same,antinociceptive effect in acute pain,[3],30 % MPE
same,toxic effect,[3],seizures and death of animals
same,"Response (ED50) with 95% confidence limits, Tail-flick",[3],1.66 (1.11-2.51) nmol i.t.
same,effect in tail-flick test,[3],increase the nociceptive threshold
same,cross tolerance with morphine,[4],cross tolerance
same,"Response (ED50) with 95% confidence limits, Cold plate",[5]; day 7 after CCI,1.14 (0.74 - 1.77) nmol i.t.
"CC(=O)N[C@H]1Cc2ccccc2CN(CC(=O)N(C)Cc2cc(C(F)(F)F)cc(C(F)(F)F)c2)C1=O [Compound 6, Ac-Aba-Gly-NMe-3’,5’-(CF3)2-Bn]",antiallodynic activity,"[2]; i.t., day 7 after CCI",significantly more potent than the opioid parent compounds
same,activity in tail-flick test after i.v. administration,"[6]; doses up to 1.21 μmol/kg i.v., not shown",did not show any activity at all; also recorded: not active at all
same,effect in tail-flick test,[3],very weak
same,effect on hyperalgesia,"[5]; i.t., day 7 after CCI",more potent in antagonizing hyperalgesia than hybrid 4 and approximately similar to 22
"Cc1cc(O)cc(C)c1C[C@H](N)C(=O)N[C@H](CCCNC(=N)N)C(=O)N[C@H]1Cc2ccccc2CN(CC(N)=O)C1=O [Compound 7, H-Dmt-D-Arg-Aba-Gly-NH2]",toxic effect,"[2]; 1 nmol i.t., CCI rats",toxic effect
same,effect in tail-flick test,[3],increase the nociceptive threshold
"Cc1cc(O)cc(C)c1C[C@H](N)C(=O)N[C@H](CCCNC(=N)N)C(=O)N[C@H]1Cc2ccccc2CN(CCC(=O)N(C)Cc2cc(C(F)(F)F)cc(C(F)(F)F)c2)C1=O [Compound 21, H-Dmt-D-Arg-Aba-β-Ala-NMe-3’,5’-(CF3)2-Bn]",improvement of MOR binding,[7],5 fold
same,improvement of DOR binding,[8]; vs 4 (Gly4 replaced by β-Ala),5 fold
same,loss in NK1R binding,[9]; vs 4,120 fold
"Cc1cc(O)cc(C)c1C[C@H](N)C(=O)N[C@H](CCCNC(=N)N)C(=O)N[C@H]1Cc2ccccc2CN(CCC(=O)N(C)Cc2ccccc2)C1=O [Compound 22, H-Dmt-D-Arg-Aba-β-Ala-NMe-Bn]",loss in antagonism potency,[10],1.5 log unit
same,toxic effect,"[2]; 1 nmol i.t., CCI rats",not observed
same,"attenuation of allodynia, von Frey","[2]; 1 nmol i.t., day 7 after CCI",80 % MPE
same,toxic signs,"[2]; i.t., CCI rats, doses up to 11 nmol",lack of toxic signs
same,"Response (ED50) with 95% confidence limits, von Frey",[2]; day 7 after CCI,0.24 (0.18 - 0.32) nmol i.t.
same,DOR binding increase,[8]; vs 21,10 factor
same,antinociceptive effect in acute pain,[3],30 % MPE
same,toxic effect,[3],did not induce a toxic effect
same,"Response (ED50) with 95% confidence limits, Tail-flick",[3],2.78 (1.80-4.30) nmol i.t.
same,duration of antinociceptive effect,[3],2 h
same,effect in tail-flick test,[3],increase the nociceptive threshold
same,effect of a single dose in rats rendered tolerant to morphine,[4]; 22 1 nmol i.t. after repeated morphine 3.5 nmol,not effective
same,cross tolerance with morphine,[4],cross tolerance
same,toxicity,"[5]; 10 nmol i.t., not shown",lacking toxicity
same,"Response (ED50) with 95% confidence limits, Cold plate",[5]; day 7 after CCI,0.34 (0.25 - 0.46) nmol i.t.
same,antinociceptive effect by area under curve,[11],most potent antinociceptive effect
same,improvement of in vitro agonism at MOR,[12]; vs 21,6 fold
same,improvement of NK1R binding affinity,[9]; vs 21,approximately 4 times
"Cc1cc(O)cc(C)c1C[C@H](N)C(=O)N[C@H](CCCNC(=N)N)C(=O)N[C@H]1Cc2ccccc2CN(CC(=O)N(Cc2cc(C(F)(F)F)cc(C(F)(F)F)c2)CC(C)C)C1=O [Compound 27, H-Dmt-D-Arg-Aba-Gly-NiBu-3’,5’-(CF3)2-Bn]",IC50,"[12]; read-out: GPI (IC50 nM), representative of MOR activation",19.7 nM
"Cc1cc(O)cc(C)c1C[C@H](N)C(=O)N[C@H](CCCNC(=N)N)C(=O)N[C@H]1Cc2ccccc2CN(CC(=O)N(Cc2ccccc2)CC(C)C)C1=O [Compound 28, H-Dmt-D-Arg-Aba-Gly-NiBu-Bn]",GPI agonist character,[12]; GPI,P.A ^e
"Cc1cc(O)cc(C)c1C[C@H](N)C(=O)N[C@H](CCCNC(=N)N)C(=O)N[C@H]1Cc2ccccc2CN(CCC(N)=O)C1=O [Compound 33, H-Dmt-D-Arg-Aba-β-Ala-NH2]",toxic effect,"[2]; 1 nmol i.t., CCI rats",toxic effect
same,antinociceptive response,"[6]; 1.21 μmol/kg i.v., mice",largely exceeded that of morphine
same,duration of antinociceptive effect,[3],2 h
same,effect in tail-flick test,[3],increase the nociceptive threshold
same,shift in DOR potency,[13],10 fold
